Results as given in PMC10882135, “Rapid reaction studies on the chemistry of flavin oxidation in urocanate reductase” (The Journal of Biological Chemistry, 2024).

Columns and labels:
[1] = target: T1, UrdA′ (isolated FAD domain of urocanate reductase) (Shewanella oneidensis, UniProt Q8CVD0); test: copurification; absorbance spectrum before and after SDS/heat release of FAD; format: binding; settings: noncovalent; pH 7
T1 construct: N-terminal FMN domain removed), C-terminal His tag, pET29b, E. coli BL21 (DE3); noncovalent FAD

[2] = target: Arg411 (UniProt position 411, EELERRDVISH); test: kinetics (anaerobic stopped-flow spectrophotometry); settings: 4 °C, 100 mM NaCl, 50 mM Bis-Tris propane (pH 6-9) or 50 mM CAPS (pH >9), 10% glycerol, reduced FAD (flavin hydroquinone) enzyme in complex with urocanate, folded (unfolding above pH 10.5 by CD)

T1 sequence (Q8CVD0 130-582): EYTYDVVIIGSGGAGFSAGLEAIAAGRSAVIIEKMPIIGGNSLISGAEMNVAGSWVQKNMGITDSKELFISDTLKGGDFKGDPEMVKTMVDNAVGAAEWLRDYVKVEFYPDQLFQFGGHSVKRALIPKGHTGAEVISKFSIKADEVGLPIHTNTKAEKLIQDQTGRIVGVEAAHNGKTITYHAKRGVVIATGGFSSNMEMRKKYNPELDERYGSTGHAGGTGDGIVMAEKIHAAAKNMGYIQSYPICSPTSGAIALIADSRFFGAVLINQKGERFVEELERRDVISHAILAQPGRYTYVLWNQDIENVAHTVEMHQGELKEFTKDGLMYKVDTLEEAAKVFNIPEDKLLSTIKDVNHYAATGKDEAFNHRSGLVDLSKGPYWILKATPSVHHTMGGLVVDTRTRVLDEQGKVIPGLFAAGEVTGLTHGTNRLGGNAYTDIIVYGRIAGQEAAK

Compound	copurification; absorbance spectrum before and after SDS/heat release of FAD [1]	pKa [2]
Cc1cc2nc3c(=O)[nH]c(=O)nc-3n(C[C@H](O)[C@H](O)[C@H](O)COP(=O)(O)OP(=O)(O)OC[C@H]3O[C@@H](n4cnc5c(N)ncnc54)[C@H](O)[C@@H]3O)c2cc1C [FAD]	extinction coefficient of FAD bound to the variants was then calculated	
Urocanate reductase, isolated FAD-binding C-terminal domain (UrdA') (Shewanella oneidensis MR-1)		9.4 ± 0.1
